Reference: patent publication US12582652B2, “3-(ethoxydifluoromethyl)-6-(5-fluoro-6-(2,2,2-trifluoroethoxy)pyridin-3-yl)-[1,2,4]triazolo[4,3-a]pyrazine as an ion channel modulator” (Praxis Precision Medicines, Inc., priority 2022, dated 2026)

Experiments:
[1] = in vivo
Source text: (§5) This was a 2-part randomized, placebo-controlled Phase 1 trial in healthy participants aged 18-55 years. […] PD effects were examined on quantitative EEG (qEEG; resting and vigilant conditions) and stimulated EEG using auditory steady state response (ASSR). A total of 48 participants were enrolled; Part A, n=30; Part B, n=18.

[2] = biological target: T1, human NaV1.6 (Homo sapiens, UniProt Q9UQD0); assay: ATX-II activated late (persistent) INa block, PatchXpress patch clamp; type: cell-based; conditions: for IC50: hNaV1.6, ATX-II-evoked, holding −120 mV
T1 construct: stably expressing either human NaV1.6 (NP_055006); expressed in transfected cells
Method: (§1) HEK-293 cell lines stably expressing either human NaV1.6 (NP_055006), mouse NaV1.6 (NP_035453.2), or rat NaV1.6 (NP_062139) were used. All cells were seeded at 2×10^6 cells per Nunc T75 flask for 2 days in culture. At time of harvest for assays, the cell counts were approximately 6×10^6 cells. Cells were washed (1×) in DPBS (Hyclone, Cat #SH30028.03) for approximately 30 seconds. 1 mL of 1×0.05% Trypsin-EDTA (GIBCO Cat #25300-054) was added and swirled around to cover the bottom of the flask and was allowed to sit on the cells for approximately 4 minutes (±90% of the cells were lifted by light tapping of the flask). 10 mL of warmed media (DMEM high glucose media Hyclone, SH30022.02 supplemented with 10% Fetal Bovine Serum, 2 mM Sodium Pyruvate, 10 mM HEPES and 400 μg/mL G418) was added to inactivate the trypsin. Cells were triturated until a single cell suspension was achieved. A cell count was performed and cells were aliquoted into a 250 ml centrifuge tube at a concentration of 2×10^5/mL in +30 ml of prewarmed media. The 250 mL centrifuge tube was placed on a rocker in an incubator set at 28° C. and gently rocked for approximately 1 hour to allow cells to recover. Cell aliquots of 5 mL (1×10^6 cells) were placed in a 15 mL centrifuge tube and spun at 100×g for 2 minutes. Supernatant was removed leaving a cell pellet. 100 μL of external recording solution was added to the pellet and triturated 20 times to achieve a single cell suspension and then transferred to a 1.5 mL tube for placement in the PatchXpress® (Molecular Devices).
(§2) Compound 1 was provided as powder and prepared as 10 mM DMSO stocks in 1 dram glass vials prior to assay. Immediately prior to assay, Compound 1 was diluted with DMSO to 300×, the designated final assay concentration. Assay dilutions (1× concentration) were prepared by pipetting 3 μL of diluted Compound 1 into 897 μL of extracellular solution in a 1 mL glass shell vial. Vials were capped and vortexed until initiation of the PatchXpress® (Molecular Devices) recording protocol.
(§3) The same intracellular recording solution was used for the persistent and peak INa assays, which contained: 135 mM CsF, 10 mM CsCl, 5 mM NaCl, 10 mM HEPES, 5 mM EGTA at a pH of 7.4 (adjusted with CsOH) and a measured osmolarity of 298 mOsm (adjusted with mannitol). For the persistent INa assay, the external recording solution contained: 135 mM NaCl, 5.4 mM KCl, 5 mM glucose, 2 mM CaCl2), 1 mM MgCl2, 10 mM HEPES, and 200 nM ATX-II (sea anemone toxin, Alomone Labs; Jerusalem, Israel) at a pH of 7.4 (adjusted with NaOH) and a measured osmolarity of 300 mOsm (adjusted with mannitol). For the peak INa assays, the external recording solution contained: 100 mM NaCl, 35 mM NMDG, 5.4 mM KCl, 5 mM glucose, 2 mM CaCl2), 1 mM MgCl2, and 10 mM HEPES at a pH of 7.4 (adjusted with NaOH) and a measured osmolarity of 300 mOsm (adjusted with mannitol).
(§4) All studies were performed using the PatchXpress® (Molecular Devices) automated patch clamp platform (Molecular Devices) using the whole cell configuration. Recordings were performed at room temperature. Data were collected using Patch Commander software (Molecular Devices) and processed using DataXpress 2.0 (Molecular Devices). Cell acceptance criteria were continuously monitored by custom scripts during the recording. Acceptance criteria for all assays were: baseline peak INa>800 pA, Rseal>200 MΩ, and, where appropriate, persistent INa>100 pA. Compensation was 50% and leak subtraction was not used. Currents were filtered at 5 kHz and digitized at 32.5 kHz. Raccess and Rseal were monitored throughout the recording and cells with Raccess>10 MΩ or Rseal<200 MΩ were terminated automatically by script.
Late (persistent) current Block: The inhibition of ATX-II activated late current was measured using a 200 ms voltage step to 0 mV. Protocols used low stimulation rates (about 0.1 Hz) and negative potentials (−120 mV) to keep channels in closed (resting) states.

[3] = biological target: T1, human NaV1.6; assay: Peak INa tonic block (TB), PatchXpress patch clamp; type: cell-based; conditions: for IC50: hNaV1.6, 0.1 Hz, resting state
Method: as §1, §2, §3, §4
Tonic Block (TB): Tonic Block (TB) protocols used low stimulation rates (about 0.1 Hz) and negative potentials (−120 mV) to keep channels in closed (resting) states. Pharmacology was measured during peak INa in response to step to 0 mV. No leak subtraction was used.

[4] = biological target: T1, human NaV1.6; assay: Peak INa use-dependent block (UDB-10 Hz), PatchXpress patch clamp; type: cell-based
[5] = biological target: T1, human NaV1.6; assay: Peak INa voltage-dependent block (VDB), PatchXpress patch clamp; type: cell-based; conditions: for IC50: hNaV1.6, half-inactivated (V1/2); for Ratio to Pers. INa (Peak INa VDB / persistent INa): hNaV1.6
Method: as §1, §2, §3, §4
Voltage Dependent Block (VDB): VDB protocols used a depolarized voltage to keep channels in half-inactivated (resting) states. This allowed equilibrium binding and accurate determination of isoform selectivity (in the absence of biological features).

[6] = system: male CD-1 mice; assay: Maximal electroshock induced seizure (MES) test; type: in vivo, mouse; conditions: for protection (increase in latency) against MES-induced tonic hindlimb seizures, dose-response: Compound 1 0.3-10 mg/kg po; for ED50: mouse MES, read-out: Efficacy (MES) ED50, increasing latency to tonic extension seizures
Method: Food and water were available ad libitum.
VPA was prepared in saline (Vehicle 1). All solutions were protected from light. All compounds and vehicles were dosed at 10 ml/kg.
The MES test was carried out over two days with 6 of 12 mice from each treatment group being tested on each day. Mice were brought to the test room at least one hour before the start of the experiment.
A Grass S88x (Grass Technologies of Astro-Med, Inc., West Warwick, RI) Stimulus Isolation Unit (A385, WPI Inc., USA) was set to deliver a 50 mA square-wave stimulus, with a 0.8 second duration, a pulse width of 10 msec, and a frequency of 50 Hz. A pair of custom stainless steel electrodes were soaked in 0.2% Agar, and then the subject received bilateral transauricular stimulation through ear-clip electrodes. During the stimulation, mice were manually restrained. They were then released into the observation cage for convulsion observation for 60 seconds immediately after stimulation. Each mouse was observed continuously by individuals blinded to treatment conditions and results were recorded.
Anti-seizure assessment endpoints were: (1) latency of hindlimb tonic flexion; (2) latency of hindlimb tonic extension; (3) total #hindlimb tonic flexions; (4) total #hindlimb tonic extensions; (5) latency to death; and (6) mortality rate
From these fitted curves, ED50 and EC50 values were calculated.

[7] = system: male CD-1 mice; assay: Spontaneous locomotor activity (sLMA) test; conditions: for sLMA distance moved, dose-response: Compound 1 10-40 mg/kg po; for Tolerability (sLMA) TD50: dose reducing sLMA by 50%
Method: Male CD-1 mice, 6-weeks old, were obtained from Vital River (Beijing, China). The average body weight was 25-35 g at the time the experiments were carried out. The mice were housed in groups of 3-5 under controlled conditions (temperature: 20-26° C.; humidity: 40-70%; air exchange rate: 10-15 cycles/hour; 12:12 light-dark cycle with lights on at 5:00 a.m.). Food and water were available ad libitum. The mice were acclimated to these conditions for 6 days before the start of the studies.
Dosing solutions were prepared on each experiment day. […] All solutions were protected from light. Samples from dosing solutions were stored at 4° C. Both compound and vehicle were dosed at 10 ml/kg.
The sLMA test was carried out over two days. 5 of 10 mice from each treatment group were tested on each day. All animals were marked on the tail with a permanent marker and weighed. Mice were randomly assigned into one of the four treatment groups. Animals were acclimated to the test room at least 30 minutes before the start of the experiment.
Possible side effects, such as overt sedation, were recorded just before the start of the sLMA test.
Each mouse was automatically tracked with overhead cameras using a 1-minute sampling window in an isolated chamber. Spontaneous locomotor activity was then analyzed offline using the Animal Behavior Video Tracking Analysis System (Ji Liang Software Technology Co., Ltd., Shanghai, China).
Locomotor status was defined as >2 mm of movement in every 200 ms (Frame-rate recorded was 20 frames/second. Locomotor status was identified in every 4 frame-to-frame interval. The accumulated shift of tracking spots that exceeded 2 mm in every 4 frame intervals was identified as a locomotor epoch). Traveling distance was calculated automatically from all the locomotion epochs and analyzed.
All mice were anesthetized with CO2. Then, terminal plasma and brain tissue samples were collected from animals in the drug treatment groups. 500 μL whole blood was collected via cardiac puncture and placed in tubes with 10 μL EDTAK2. The tubes were then placed in wet ice until centrifuged at 2000 g for 5 minutes at 4° C. The supernatant plasma was pipetted into Eppendorf tubes.
All statistical analyses were conducted using GraphPad Prism 7.0. Data are presented as mean±s.e.m., and p<0.05 was regarded as statistically significant.
Dose-response and concentration-response curves for plasma and brain were fitted for each end-point using GraphPad Prism. From these fitted curves, TD50 and TC50 values were calculated.

[8] = system: healthy participants; assay: 2-part Phase 1 trial (28 days; OXC combination): safety and tolerability; type: in vivo, human; conditions: Part B, per arm
Source text: as §5

T1 sequence (Q9UQD0 whole entry): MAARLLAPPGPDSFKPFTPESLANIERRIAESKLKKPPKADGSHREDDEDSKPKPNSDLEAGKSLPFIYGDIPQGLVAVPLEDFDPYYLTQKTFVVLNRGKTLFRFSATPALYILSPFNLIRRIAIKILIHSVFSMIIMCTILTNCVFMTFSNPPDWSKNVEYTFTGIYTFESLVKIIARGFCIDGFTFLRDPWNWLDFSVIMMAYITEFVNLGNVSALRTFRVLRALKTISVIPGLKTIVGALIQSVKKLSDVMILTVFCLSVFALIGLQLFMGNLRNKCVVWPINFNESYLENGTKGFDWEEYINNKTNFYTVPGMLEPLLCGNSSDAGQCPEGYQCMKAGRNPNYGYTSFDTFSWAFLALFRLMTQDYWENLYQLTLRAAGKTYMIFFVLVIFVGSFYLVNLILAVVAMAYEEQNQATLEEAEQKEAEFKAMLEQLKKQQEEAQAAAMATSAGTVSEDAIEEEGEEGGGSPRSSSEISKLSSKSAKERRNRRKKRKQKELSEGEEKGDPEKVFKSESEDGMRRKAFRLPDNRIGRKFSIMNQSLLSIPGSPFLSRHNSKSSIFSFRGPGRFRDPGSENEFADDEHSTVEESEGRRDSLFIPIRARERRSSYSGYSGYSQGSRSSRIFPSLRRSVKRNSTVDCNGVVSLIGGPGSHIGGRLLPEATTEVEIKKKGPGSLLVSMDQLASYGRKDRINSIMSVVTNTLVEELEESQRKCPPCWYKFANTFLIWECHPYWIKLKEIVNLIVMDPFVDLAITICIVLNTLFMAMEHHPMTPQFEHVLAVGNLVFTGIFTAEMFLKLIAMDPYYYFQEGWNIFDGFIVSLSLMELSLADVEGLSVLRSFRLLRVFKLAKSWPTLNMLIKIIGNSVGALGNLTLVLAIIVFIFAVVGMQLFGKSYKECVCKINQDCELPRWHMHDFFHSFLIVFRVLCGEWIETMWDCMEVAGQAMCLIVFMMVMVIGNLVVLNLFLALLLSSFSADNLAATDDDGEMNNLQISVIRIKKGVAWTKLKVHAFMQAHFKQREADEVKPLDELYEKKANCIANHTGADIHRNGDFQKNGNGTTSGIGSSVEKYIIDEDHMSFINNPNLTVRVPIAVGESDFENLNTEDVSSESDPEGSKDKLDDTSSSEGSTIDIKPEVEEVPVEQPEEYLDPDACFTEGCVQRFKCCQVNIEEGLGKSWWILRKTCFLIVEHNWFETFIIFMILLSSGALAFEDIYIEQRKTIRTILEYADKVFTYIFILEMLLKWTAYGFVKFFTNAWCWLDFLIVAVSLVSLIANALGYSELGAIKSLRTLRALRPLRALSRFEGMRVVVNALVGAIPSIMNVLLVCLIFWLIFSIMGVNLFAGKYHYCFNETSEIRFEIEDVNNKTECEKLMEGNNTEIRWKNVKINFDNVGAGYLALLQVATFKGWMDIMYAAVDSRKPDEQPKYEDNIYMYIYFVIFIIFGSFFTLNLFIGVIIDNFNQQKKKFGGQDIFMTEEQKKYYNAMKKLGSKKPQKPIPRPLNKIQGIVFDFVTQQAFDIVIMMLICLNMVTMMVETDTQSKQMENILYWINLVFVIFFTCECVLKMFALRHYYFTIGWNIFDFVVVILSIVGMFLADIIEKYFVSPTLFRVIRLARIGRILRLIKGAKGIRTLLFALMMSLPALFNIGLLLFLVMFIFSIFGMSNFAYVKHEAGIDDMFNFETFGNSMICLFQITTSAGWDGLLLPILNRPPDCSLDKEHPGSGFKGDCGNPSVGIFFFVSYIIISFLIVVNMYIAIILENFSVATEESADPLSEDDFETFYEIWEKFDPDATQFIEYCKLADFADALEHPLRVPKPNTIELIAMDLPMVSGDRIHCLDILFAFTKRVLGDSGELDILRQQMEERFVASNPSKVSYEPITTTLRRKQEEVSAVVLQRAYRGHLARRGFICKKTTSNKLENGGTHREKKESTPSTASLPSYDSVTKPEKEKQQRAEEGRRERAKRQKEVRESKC

## NC(=O)N1c2ccccc2CC(O)c2ccccc21 (stereo not shown) [10-Hydroxycarbamezapine]
[1]
  exposure when administered concomitantly with Compound 1 vs alone: appeared to be similar

## NC(=O)N1c2ccccc2C=Cc2ccccc21 [Carbamazepine, reference compound]
[2]
  IC50: 77.5 µM
[3]
  IC50: 2310 µM
[4]; hNaV1.6, 10 Hz
  IC50: 1420 µM
  use-dependent block at stimulation frequency of 10 Hz: not observed
[4]; hNaV1.6, 10 Hz, 30 Hz or 50 Hz
  use-dependent block at increased frequencies: could be observed
[5]
  IC50: 44.4 µM
[6]; CBZ 30 mg/kg
  mice protected against MES-induced tonic hindlimb seizures: all mice
[6]
  protection (increase in latency) against MES-induced tonic hindlimb seizures, dose-response: dose-dependent protection
  ED50: 5 mg/kg
[7]; CBZ
  sLMA at the dose required for complete seizure prevention: significant reduction
[7]
  sLMA distance moved, dose-response: dose-dependent reductions
  Tolerability (sLMA) TD50: 37.6 mg/kg
[7]; brain TC50 (sLMA) / brain EC50 (MES), free concentrations
  PI (Brain): 5.9
[7]; plasma TC50 (sLMA) / plasma EC50 (MES), free concentrations
  PI (Plasma): 3.4

## NC(=O)O[C@@H](Cn1ncnn1)c1ccccc1Cl [Cenobamate]
[2]
  IC50: 71.7 µM
[3]; hNaV1.6
  Ratio to Pers. INa (Peak INa TB / persistent INa): 24
[3]
  IC50: 1720 µM
[4]; hNaV1.6
  Ratio to Peak INa (TB) (UDB-10 Hz): 2.3
  Ratio to Pers. INa (Peak INa UDB-10 Hz / persistent INa): 11
[4]; hNaV1.6, 10 Hz
  IC50: 749 µM
[5]
  Ratio to Pers. INa (Peak INa VDB / persistent INa): 0.9
  IC50: 66.7 µM

## COC[C@@H](NC(C)=O)C(=O)NCc1ccccc1 [Lacosamide]
[2]
  IC50: 833 µM
[4]; hNaV1.6
  Ratio to Pers. INa (Peak INa UDB-10 Hz / persistent INa): 0.8
[4]; hNaV1.6, 10 Hz
  IC50: 682 µM
[5]
  Ratio to Pers. INa (Peak INa VDB / persistent INa): 0.3
  IC50: 269 µM

## Nc1nnc(-c2cccc(Cl)c2Cl)c(N)n1 [Lamotrigine, reference compound]
[6]
  protection (increase in latency) against MES-induced tonic hindlimb seizures, dose-response: dose-dependent protection
  ED50: 3.4 mg/kg
[6]; LTG 10 mg/kg, highest dose tested
  mice protected against MES-induced tonic hindlimb seizures: eight of 12
[7]
  sLMA distance moved, dose-response: dose-dependent reductions
  Tolerability (sLMA) TD50: 26.5 mg/kg

## NC(=O)N1c2ccccc2CC(=O)c2ccccc21 [Oxcarbazepine]
[2]
  IC50: 124 µM
[3]; hNaV1.6
  Ratio to Pers. INa (Peak INa TB / persistent INa): 8
[3]
  IC50: 1040 µM
[5]
  Ratio to Pers. INa (Peak INa VDB / persistent INa): 0.3
  IC50: 42 µM
[8]
  patients in whom TEAEs were observed (number): 3
  patients in whom TEAEs were observed (percent): 75%
[1]
  exposure when administered concomitantly with Compound 1 vs alone: appeared to be similar

## O=C1NC(=O)C(c2ccccc2)(c2ccccc2)N1 [Phenytoin]
[2]
  IC50: 59.8 µM
[4]; hNaV1.6
  Ratio to Pers. INa (Peak INa UDB-10 Hz / persistent INa): 15
[4]; hNaV1.6, 10 Hz
  IC50: 877 µM
[5]
  Ratio to Pers. INa (Peak INa VDB / persistent INa): 0.8
  IC50: 47.8 µM

## CCCC(CCC)C(=O)O [Valproic acid]
[2]; hNaV1.6, 1 mM
  inhibition at 1000 µM: 2%
[3]; hNaV1.6, 1 mM
  inhibition at 1000 µM: 11%
[4]; hNaV1.6, 1 mM
  inhibition at 1000 µM: 8%
